Measurements from patent US20110065760A1, “COMPOUNDS FOR THE INHIBITION OF ROTAMASES AND USE THEREOF” (Jerini AG, priority 2002, published 2011).

Experiments:
Type in all cases: biochemical
hCyp18 = hCyp18 (Homo sapiens, UniProt P62937); assay: protease-coupled PPIase assay, hCyp18; conditions: 10 nM hCyp18, substrate Suc-Ala-Phe-Pro-Phe-pNA, chymotrypsin, pH 7.8, 6° C.; read-out: IC50 class, Target T-3 (hCyp18)
Papain = target: T1, Papain (Carica papaya, UniProt P00784); assay: papain assay; conditions: 16 μg/ml papain, 2 mM Bz-DL-Arg-pNA, pH 6.5, 30° C., 30 min incubation; read-out: IC50 class, Target T-6 (Papain)
T1 sequence (P00784 134-345): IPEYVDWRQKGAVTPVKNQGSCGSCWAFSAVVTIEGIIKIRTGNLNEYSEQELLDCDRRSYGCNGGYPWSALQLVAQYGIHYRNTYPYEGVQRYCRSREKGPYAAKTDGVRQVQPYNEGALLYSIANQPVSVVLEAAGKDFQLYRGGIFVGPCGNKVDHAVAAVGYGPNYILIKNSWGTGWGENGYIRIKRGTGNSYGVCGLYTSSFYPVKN
Procedure, shortened: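 Enzyme pre-incubated 30 min with 1-100 μM compound at 30° C, then pNA substrate added; 4-nitroaniline release read at 390 nm. Trypsin: 0.1 μg/ml, 120 μM Ac-Ala-Ala-Ser(PO3H2)-Pro-Arg-pNA, HEPES pH 7.8; cathepsin B: 0.2 μg/ml, 2 mM Z-Arg-Arg-pNA, phosphate/EDTA/Brij 35 pH 5.8; papain: 16 μg/ml, 2 mM Bz-DL-Arg-pNA, phosphate/L-Cys/EDTA pH 6.5.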

Trypsin = target: T2, Trypsin (UniProt P00760); assay: trypsin assay; conditions: 0.1 μg/ml trypsin, 120 μM Ac-Ala-Ala-Ser(PO3H2)-Pro-Arg-pNA, pH 7.8, 30° C., 30 min incubation; read-out: IC50 class, Target T-7 (Trypsin)
T2 sequence (P00760 1-246): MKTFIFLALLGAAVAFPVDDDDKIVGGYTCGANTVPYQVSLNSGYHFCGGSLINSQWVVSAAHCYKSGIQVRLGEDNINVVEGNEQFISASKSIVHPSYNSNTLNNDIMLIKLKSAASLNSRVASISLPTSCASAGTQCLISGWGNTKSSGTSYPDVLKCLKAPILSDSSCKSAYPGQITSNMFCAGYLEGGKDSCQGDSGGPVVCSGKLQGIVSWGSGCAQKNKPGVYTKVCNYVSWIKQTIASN
Procedure: (§1) In order to investigate the impact of some of the inventive compounds on the activity of key proteases the following assay was performed: Protease activities were measured spectrophotometrically at 30° C. according to Schomburg and Salzmann (Schomburg, B.; Salzmann M. GBF: Enzyme Handbook. Springer Verlag, Berlin Heidelberg, 1991) and Bergmeyer et al. (Bergmeyer, H. U.; Bergmeyer, J.; Graβl, M. Methods of Enzymatic Analysis, Vol. V Enzymes 3: Peptides, Proteinases and Their Inhibitors. pp 55-371, VCH, Weinheim, 1988). The release of 4-nitroaniline was determined at 390 nm with a Spectramax Plus UV/Vis spectrophotometer (Molecular Devices). The cathepsin B assay was performed in a reaction mixture containing 0.2 μg/ml cathepsin B, 2 mM Z-Arg-Arg-pNA in 88 mM KH2PO4, 12 mM Na2HPO4, 1.33 mM EDTA, 0.03% Brij 35 (pH 5.8). The trypsin assay was carried out in a reaction mixture containing 0.1 μg/ml trypsin and 120 μM Ac-Ala-Ala-Ser(PO3H2)-Pro-Arg-pNA in 35 mM HEPES (pH 7.8) and the papain assay in a mixture consisting of 16 μg/ml papain and 2 mM Bz-DL-Arg-pNA in 10 mM Na2HPO4, 2 mM L-Cys, 5 mM EDTA (pH 6.5). In general, reactions were started by addition of peptide substrate after a 30 min incubation of 1-100 μM effector with given concentrations of enzyme.

hPin1 = hPin1 (Homo sapiens, UniProt Q13526); assay: protease-coupled PPIase assay, hPin1; conditions: 6 nM hPin1, substrate Ac-Ala-Ala-Ser(PO3H2)-Pro-Arg-pNA, trypsin, pH 7.8, 6° C.; read-out: IC50 class, Target T-1 (hPin1)
EcParvulin = EcParvulin (Escherichia coli, UniProt P0A9L5); assay: protease-coupled PPIase assay, EcParvulin
hFKBP12 = hFKBP12 (Homo sapiens, UniProt P62942); assay: protease-coupled PPIase assay, hFKBP12; conditions: 20 nM hFKBP12, substrate Suc-Ala-Phe-Pro-Phe-pNA, chymotrypsin, pH 7.8, 6° C.; read-out: IC50 class, Target T-2 (hFKBP12)
cathepsin B = cathepsin B (Homo sapiens, UniProt P07858); assay: cathepsin B assay; conditions: 0.2 μg/ml cathepsin B, 2 mM Z-Arg-Arg-pNA, pH 5.8, 30° C., 30 min incubation; read-out: IC50 class, Target T-8 (Cathepsin)
Procedure: as §1

hPin1, sequence (Q13526 whole entry): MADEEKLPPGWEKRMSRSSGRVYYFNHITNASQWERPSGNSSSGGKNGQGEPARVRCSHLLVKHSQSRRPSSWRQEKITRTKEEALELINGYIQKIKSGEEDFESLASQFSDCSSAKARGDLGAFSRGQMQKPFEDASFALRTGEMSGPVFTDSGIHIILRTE
EcParvulin, sequence (P0A9L5 whole entry): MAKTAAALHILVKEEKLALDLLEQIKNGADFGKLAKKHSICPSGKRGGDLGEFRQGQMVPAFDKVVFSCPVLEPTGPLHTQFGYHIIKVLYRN
hCyp18, sequence (P62937 whole entry): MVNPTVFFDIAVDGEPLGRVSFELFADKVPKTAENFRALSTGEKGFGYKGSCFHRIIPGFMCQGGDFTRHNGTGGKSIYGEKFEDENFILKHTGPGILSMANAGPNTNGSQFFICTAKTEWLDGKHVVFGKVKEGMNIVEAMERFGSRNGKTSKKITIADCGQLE
hFKBP12, sequence (P62942 whole entry): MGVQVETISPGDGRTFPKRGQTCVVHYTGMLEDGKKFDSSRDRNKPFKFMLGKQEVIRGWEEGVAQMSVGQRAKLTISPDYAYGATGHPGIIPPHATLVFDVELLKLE

## Cc1c(Cl)cc(NC(=O)NC(C)(C)CC(C)(C)C)c(O)c1Cl [Compound 102]
hCyp18
  IC50: 10 to 50 µM
Papain
  IC50: 50 to 100 µM
Trypsin
  IC50: 10 to 50 µM
hPin1
  IC50: 1 to 10 µM
EcParvulin
  IC50: 1 to 10 µM
hFKBP12
  IC50: > 100 µM
Cathepsin B
  IC50: 50 to 100 µM
